Laboratory results published in patent publication US4734399A, “Growth hormone releasing factor analogs” (Hoffmann-La Roche Inc., priority 1986, dated 1988).

Experiments:
[1] = test system: release of growth hormone; conditions: in vitro; Rivier et al., Nature 300: 276 (1982); cited from earlier work
rat pituitary cells = experiment: Stimulation of growth hormone production in rat pituitary cells in tissue culture (RIA for rat growth hormone); type: cell-based; conditions: for Potency Relative to GRF(1-44)-NH2: Exp. #GB 83, rat anterior pituitary cells, 4 hours of incubation, 0.8 to 200 fmol per ml, GH by RIA
Protocol: The assay for biological activity, which is based on the ability to stimulate production of growth hormone in rat pituitary cells in tissue culture, was performed as discribed in Example 2.
Pituitaries from 30-40 male Sprague-Dawley rats (175 g) were removed aseptically after decapitation. The anterior lobes were collected, washed 3 times in sterile Hepes buffer (0.025M) (pH 7.35) and dispersed at 37° C. in 20-30 ml Hepes buffer (pH 7.35) containing collagenase (4 mg per ml) and Dispase (Protease grade II, 2 mg per ml). After gentle 100-110 min vortexing and trituration by Pasteur pipette, the dispersed cells were separated by centrifugation (150×g, 4 min) and re-suspended in Hepes buffer containing neuraminidase ([…]), and 200 µg/ml ethylenediaminetetraacetic acid (EDTA) disodium salt, pH 7.35, for 10 min.
The cells were washed twice with plating medium and plated on multiwell-plates (1.5×10^5 cells per ml) using the following defined medium: F-12/DMEM/BGJ (6:3:1) (Gibco: 430-1700/430-1600/320-2591) with 2 g BSA/l., 2.38 g Hepes/1.50 mg PSN antibiotic mixture (Gibco Laboratories), 10 mg/l transferrin (Sigma T2252) with 1.83 g NaHCO3 /l (Baker 3506). The medium in each well was supplemented either with a sample of the novel GRF peptide or natural GRF(1-44)-NH2 at concentrations ranging from 0.8 to 200 fmol per ml of medium. Control wells contained no supplement. Plating was done with this medium added with 2% fetal calf serum to ensure rapid fixation of the cells.
On the fourth day, the cells were washed twice with the defined medium without fetal calf serum. Finally 900 μl of defined medium was added to each well plus 100 μl of the same medium containing each individual treatment, in triplicate. After 4 hours of incubation the medium was collected and diluted as required to conduct radioimmunoassay (RIAs) for rat growth hormone.
RIAs for rat growth hormone were conducted using Sinha's anti-murine GH immune serum and procedures according to the National Pituitary Agency using protein A to precipitate antibody antigen complex.

Substance | Intrinsic activity and potency on a weight for weight basis [1] | Potency Relative to GRF(1-44)-NH2 (rat pituitary cells) | Biological activity compared with natural GRF(1-44)-NH2 (rat pituitary cells; vs natural GRF(1-44)-NH2 isolated from human pancreatic tumor (Salk Institute standard hGRF-NH2 (NL-A-10)))
GRF(1-29)-NH2 [GRF(1-29)NH2] | full intrinsic activity and potency | 0.5 | 
GRF(1-44)-NH2 [GRF(1-44)NH2] |  | 1.0 | identical to the natural GRF(1-44)-NH2
